Test results from ChEMBL document CHEMBL5154942, “Discovery of Clinical Candidate NTQ1062 as a Potent and Bioavailable Akt Inhibitor for the Treatment of Human Tumors” (J Med Chem, 2022).
Activity calls are given as the source filed them. No cut-off for these calls is given here.

Key:
[1] = Tmax in NCG mouse xenografted with human LNCaP cells at 25 mg/kg administered once daily for 18 to 21 days and measured upto 10 hrs post last dose by LC-MS/MS analysis; format: ADME, organism-based; details: in vivo, time 18-21 day
[2] = Cmax in NCG mouse xenografted with human LNCaP cells at 25 mg/kg administered once daily for 18 to 21 days and measured upto 10 hrs post last dose by LC-MS/MS analysis; format: ADME, organism-based; parameters: time upper 21 day, time lower 18 day, dose 25 mg/kg; details: in vivo
[3] = system: LNCaP; assay: Induction of apoptosis in human LNCaP cells assessed as late apoptotic cells at […] incubated for 72 hrs by annexin V/PI double staining based flow cytometry method (reference value: 2.75 %); format: functional
[4] = Metabolic stability in Crab eating monkey liver microsomes assessed as half life at 1 uM measured after 60 mins by LC-MS/MS analysis; format: ADME, Macaca fascicularis, Microsome; details: cynomolgus monkey
[5] = system: LNCaP; assay: Induction of apoptosis in human LNCaP cells assessed as viable cells at 1.25 uM incubated for 72 hrs by annexin V/PI double staining based flow cytometry method (reference value: 93.63 %); format: functional; details: read-out: Activity
[6] = Apparent volume of distribution at steady state in Sprague-Dawley rat at 5 mg/kg, iv measured upto 24 hrs by UPLC-MS/MS analysis; format: ADME, organism-based; details: in vivo, read-out: Vdss(app)
[7] = Tmax in NCG mouse xenografted with human LNCaP cells at 50 mg/kg administered once daily for 18 to 21 days and measured upto 10 hrs post last dose by LC-MS/MS analysis; format: ADME, organism-based; details: in vivo, time 18-21 day
[8] = target: T1, Cytochrome P450 1A2 (Homo sapiens, UniProt P05177); assay: Inhibition of CYP1A2 in human liver microsomes at 0.01 to 30 uM […] in presence of NADPH by UPLC-MS/MS analysis; format: ADME, Microsome
T1 sequence (P05177 whole entry): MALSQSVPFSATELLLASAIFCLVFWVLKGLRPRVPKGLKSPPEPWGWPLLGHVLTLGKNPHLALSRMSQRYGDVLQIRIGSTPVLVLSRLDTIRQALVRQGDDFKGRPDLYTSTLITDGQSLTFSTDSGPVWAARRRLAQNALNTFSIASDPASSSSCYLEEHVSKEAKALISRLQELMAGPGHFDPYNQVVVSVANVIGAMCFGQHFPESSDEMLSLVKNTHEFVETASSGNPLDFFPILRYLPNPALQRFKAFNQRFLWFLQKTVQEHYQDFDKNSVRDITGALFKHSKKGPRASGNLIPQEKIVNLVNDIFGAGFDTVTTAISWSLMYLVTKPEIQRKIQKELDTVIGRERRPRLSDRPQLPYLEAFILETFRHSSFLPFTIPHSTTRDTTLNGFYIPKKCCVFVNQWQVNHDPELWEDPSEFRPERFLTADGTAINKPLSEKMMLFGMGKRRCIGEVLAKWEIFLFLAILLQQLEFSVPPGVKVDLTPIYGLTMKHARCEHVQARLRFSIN

[9] = Half life in Sprague-Dawley rat at 5 mg/kg, iv measured upto 24 hrs by UPLC-MS/MS analysis; format: ADME, organism-based; details: in vivo
[10] = Metabolic stability in Beagle dog liver microsomes assessed hepatic clearance at 1 uM measured after 60 mins by LC-MS/MS analysis; format: ADME, Canis lupus familiaris, Microsome; details: 1 h
[11] = Cmax in Sprague-Dawley rat at 5 mg/kg, iv measured upto 24 hrs by UPLC-MS/MS analysis; format: ADME, organism-based; parameters: dose 5 mg/kg, time < 24 hrs, route iv; details: in vivo
[12] = Metabolic stability in CD-1 mouse liver microsomes assessed as half life at 1 uM measured after 60 mins by LC-MS/MS analysis; format: ADME, Microsome
[13] = Metabolic stability in Crab eating monkey liver microsomes assessed as intrinsic clearance at 1 uM measured after 60 mins by LC-MS/MS analysis; format: ADME, Macaca fascicularis, Microsome; details: cynomolgus monkey, 1 h
[14] = Metabolic stability in human liver microsomes assessed hepatic clearance at 1 uM measured after 60 mins by LC-MS/MS analysis; format: ADME, Microsome; details: 1 h
[15] = Half life in crab-eating monkey at 6 mg/kg, ig by UPLC-MS/MS analysis; format: ADME, organism-based, Macaca fascicularis; details: cynomolgus monkey, in vivo, po
[16] = Metabolic stability in human liver microsomes assessed as parent compound remaining at 1 uM measured after 60 mins by UPLC-MS/MS analysis; format: ADME, Microsome; details: read-out: Stability
[17] = Cmax in NCG mouse xenografted with human LNCaP cells at 50 mg/kg administered once daily for 18 to 21 days and measured upto 10 hrs post last dose by LC-MS/MS analysis; format: ADME, organism-based; parameters: dose 50 mg/kg, time 18-21 day; details: in vivo
[18] = system: LNCaP; assay: Induction of apoptosis in human LNCaP cells assessed as necrotic cells at […] incubated for 72 hrs by annexin V/PI double staining based flow cytometry method (reference value: 2.41%); format: functional
[19] = system: LNCaP; assay: Induction of cell cycle arrest in human LNCap cells assessed as decrease in accumulation at S phase at 0.04 to 1 uM incubated for 24 hrs by flow cytometry; format: functional, cell-based; details: dose 0.04-1 µM
[20] = Bioavailability in Sprague-Dawley rat at 10 mg/kg, ig by UPLC-MS/MS analysis; format: ADME, organism-based; details: in vivo, po
[21] = Cmax in crab-eating monkey at 3 mg/kg, iv measured upto 24 hrs by UPLC-MS/MS analysis; format: ADME, organism-based, Macaca fascicularis; parameters: dose 3 mg/kg, time < 24 hrs, route iv; details: cynomolgus monkey, in vivo
[22] = system: LNCaP; assay: Induction of apoptosis in human LNCaP cells assessed as early apoptotic cells at 1.25 uM incubated for 72 hrs by annexin V/PI double staining based flow cytometry method (reference value: […]); format: functional
[23] = Cmax in NCG mouse xenografted with human LNCaP cells at 12.5 mg/kg administered once daily for 18 to 21 days and measured upto 10 hrs post last dose by LC-MS/MS analysis; format: ADME, organism-based; details: in vivo
[24] = system: LNCaP; assay: Induction of cell cycle arrest in human LNCap cells assessed as decrease in accumulation at G2/M phase at 0.04 to 1 uM incubated for 24 hrs by flow cytometry; format: functional, cell-based; details: dose 0.04-1 µM
[25] = AUC (0 to t) in Sprague-Dawley rat at 10 mg/kg, ig by UPLC-MS/MS analysis; format: ADME, organism-based; parameters: dose 10 mg/kg, route ig; details: in vivo, po
[26] = Tmax in crab-eating monkey at 6 mg/kg, ig by UPLC-MS/MS analysis; format: ADME, organism-based, Macaca fascicularis; details: cynomolgus monkey, in vivo, po
[27] = Metabolic stability in human […] liver microsomes assessed as half life at 1 uM measured after 60 mins by LC-MS/MS analysis; format: ADME, Microsome
[28] = target: Protein kinase C alpha type (Homo sapiens) (UniProt P17252); assay: Inhibition of PKCalpha (unknown origin) at 1 uM in presence of ATP at Km concentration by mobility shift assay relative to control
[29] = system: LNCaP; assay: Induction of apoptosis in human LNCap cells assessed as necrotic cells incubated for 72 hrs by annexin V/PI double staining based flow cytometry method; format: functional, cell-based; details: dose 0.62-2.5 µM, DDE = dose-dependent effect
[30] = target: Cytochrome P450 2C9 (Homo sapiens, UniProt P11712); assay: Inhibition of CYP2C9 in human liver microsomes at 0.01 to 30 uM using diclofenac as substrate in presence of NADPH by UPLC-MS/MS analysis; format: ADME, Microsome
[31] = system: LNCaP; assay: In vivo inhibition of AKT in human LNCaP cells xenografted in NCG mouse assessed as reduction in PRAS40 phosphorylation at 50 mg/kg administered for 21 days and measured after 4 hrs post last dose by Western blot analysis; format: functional, organism-based; details: time 21.0 day

Sequence of Cytochrome P450 2C9 (P11712 whole entry): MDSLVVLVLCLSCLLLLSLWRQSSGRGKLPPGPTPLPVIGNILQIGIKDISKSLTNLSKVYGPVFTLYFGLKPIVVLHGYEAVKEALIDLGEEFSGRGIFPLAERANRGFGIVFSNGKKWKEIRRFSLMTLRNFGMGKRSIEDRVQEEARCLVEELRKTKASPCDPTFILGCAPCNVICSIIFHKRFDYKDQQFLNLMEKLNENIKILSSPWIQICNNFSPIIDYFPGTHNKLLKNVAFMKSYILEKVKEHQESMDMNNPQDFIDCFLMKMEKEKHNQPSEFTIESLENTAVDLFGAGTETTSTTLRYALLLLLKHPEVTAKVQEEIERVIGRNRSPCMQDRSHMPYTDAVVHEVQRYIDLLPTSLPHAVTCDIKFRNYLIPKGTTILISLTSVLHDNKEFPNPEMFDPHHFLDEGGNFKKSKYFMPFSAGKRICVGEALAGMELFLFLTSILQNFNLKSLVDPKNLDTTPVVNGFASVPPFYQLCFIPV

- Tmax [1]: 4 h
- Cmax [2]: 1980 ng/mL
- half-life at 1 µM [4]: 0.472 h
- Vd [6]: 7.76 L/kg
- Tmax [7]: 1 h
- IC50 [8]: > 50 µM
- half-life [9]: 2.97 h
- CLH [10]: 0.0169 mL/min/kg
- Cmax [11]: 1690 ng/mL
- half-life at 1 µM [12]: > 6.45 h
- CLH [13]: 0.049 mL/min/kg
- CLH [14]: 8.96 mL/min/kg
- half-life [15]: 6.16 h
- remaining at 1 h, 1 µM [16]: 62.9%
- Cmax [17]: 3050 ng/mL
- bioavailability [20]: 110%
- Cmax [21]: 702 ng/mL
- Cmax [23]: 963 ng/mL
- AUC(0-t) [25]: 3880 ng·h/mL
- Tmax [26]: 4 h
- half-life at 1 µM [27]: 1.52 h
- inhibition [28]: 90%
- IC50 [30]: > 50 µM
Structure (SMILES): CC(C)NC[C@@H](C(=O)N1CCN(c2ncnc3c2[C@H](C)CC(=O)N3)[C@H]2C[C@H]21)c1ccc(Cl)cc1
- Activity ([3]; dose 0.62 µM): 9.01%
- Activity ([3]; dose 2.5 µM): 16.43%
- viability at 1.25 µM [5]: 69.8%
- Activity ([18]; dose 0.62 µM): 4.72%
- Activity ([18]; dose 2.5 µM): 6%
- Activity [19]: Active
- Activity [22]: 12.6%
- Activity [24]: Active
- Activity [29]: Dde
- Activity [31]: Active
